Assay results published in patent US20260071220A1, “CONJUGATE OF NUCLEOTIDE ANALOG-CONTAINING DOUBLE-STRANDED RNAI ANALOG” (BaseCure Therapeutics LLC, priority 2022, published 2026).
“And” between values parts separate entries of the source, which are not always exact repeats. Identical values can stand only once. In the oligonucleotide strings, read from the 5' end, every base follows the letter of its sugar. An asterisk marks phosphorothioate; unmarked linkages are phosphodiester. Other units and linkages are bracketed, terminal groups are in braces. A string of capitals states the bases alone. {D01} = GalNAc ligand D01, attached to sense strand by a phosphodiester bond; m = 2'-O-methyl; f = 2'-fluoro

Experiments:
[1] = test system: AGT mRNA; assay: Mouse hAGT HDI model (liver AGT mRNA); format: in vivo; settings: 5 mg/kg single s.c. dose, liver on Day 4; for AGT mRNA expression of mouse liver after administration/before administration, Average: group average (4 mice); for AGT mRNA expression of mouse liver after administration/before administration: individual animal, 5 mg/kg
Protocol: The targeting of a target gene in a sample to be tested and the inhibitory effect on the target gene were evaluated by a mouse model injected with pcDNA-CMV-AGT plasmids via tail vein at high pressure.
pcDNA-CMV-AGT plasmids, BALB/c female mice, DPBS (Dulbecco's phosphate buffer solution), and a conjugate of the present invention.
6 to 8-week-old BALB/c female mice were purchased, and the mice were adapted to quarantine for one week after arriving at an animal room.
On Day 0, the mice were divided into groups at random according to weight data, with 4 mice in each group, all the mice were dosed subcutaneously after grouping, with a single dose at 10 mL/kg. The mice in group 1 were dosed with DPBS; the mice in group 2 were dosed with AD-85481 at the dose of 5 mg/kg; the mice in group 3 were dosed with the conjugate 3 of the present invention at the dose of 5 mg/kg; the group 4 was dosed with the conjugate 2 of the present invention at the dose of 5 mg/kg.
On Day 3 after administration, all the mice were injected with the pcDNA-CMV-AGT plasmids at a volume of 8% of their weight via the tail vein within 5 s (injection volume (mL)=mouse weight (g)×8%). The mass of the plasmids injected into each mouse was 10 μg.
On Day 4 after administration, all groups of mice were euthanized by CO2 inhalation, and 2 liver samples were collected from each mouse. The liver samples were treated with RNAlater at 4° C. overnight, then RNAlater was removed, and subsequently the samples without RNAlater were stored at −80° C. for detecting the expression level of AGT genes.
4. In the table, the data represent AGT mRNA expression of mouse liver after administration/AGT mRNA expression of mouse liver before administration, […]

[2] = target: T1, hTLR7 (Homo sapiens, UniProt Q9NYK1); assay: Agonistic activity on hTLR7 cells (HEK BLUE, QUANTI-Blue OD650); format: cell-based; settings: 24 h, transfection with RNAiMAX, maximum concentration 200 nM
T1 construct: host or cells: HEK BLUE hTLR7 (HEK293-derived SEAP reporter line)
T1 sequence (Q9NYK1 27-1049): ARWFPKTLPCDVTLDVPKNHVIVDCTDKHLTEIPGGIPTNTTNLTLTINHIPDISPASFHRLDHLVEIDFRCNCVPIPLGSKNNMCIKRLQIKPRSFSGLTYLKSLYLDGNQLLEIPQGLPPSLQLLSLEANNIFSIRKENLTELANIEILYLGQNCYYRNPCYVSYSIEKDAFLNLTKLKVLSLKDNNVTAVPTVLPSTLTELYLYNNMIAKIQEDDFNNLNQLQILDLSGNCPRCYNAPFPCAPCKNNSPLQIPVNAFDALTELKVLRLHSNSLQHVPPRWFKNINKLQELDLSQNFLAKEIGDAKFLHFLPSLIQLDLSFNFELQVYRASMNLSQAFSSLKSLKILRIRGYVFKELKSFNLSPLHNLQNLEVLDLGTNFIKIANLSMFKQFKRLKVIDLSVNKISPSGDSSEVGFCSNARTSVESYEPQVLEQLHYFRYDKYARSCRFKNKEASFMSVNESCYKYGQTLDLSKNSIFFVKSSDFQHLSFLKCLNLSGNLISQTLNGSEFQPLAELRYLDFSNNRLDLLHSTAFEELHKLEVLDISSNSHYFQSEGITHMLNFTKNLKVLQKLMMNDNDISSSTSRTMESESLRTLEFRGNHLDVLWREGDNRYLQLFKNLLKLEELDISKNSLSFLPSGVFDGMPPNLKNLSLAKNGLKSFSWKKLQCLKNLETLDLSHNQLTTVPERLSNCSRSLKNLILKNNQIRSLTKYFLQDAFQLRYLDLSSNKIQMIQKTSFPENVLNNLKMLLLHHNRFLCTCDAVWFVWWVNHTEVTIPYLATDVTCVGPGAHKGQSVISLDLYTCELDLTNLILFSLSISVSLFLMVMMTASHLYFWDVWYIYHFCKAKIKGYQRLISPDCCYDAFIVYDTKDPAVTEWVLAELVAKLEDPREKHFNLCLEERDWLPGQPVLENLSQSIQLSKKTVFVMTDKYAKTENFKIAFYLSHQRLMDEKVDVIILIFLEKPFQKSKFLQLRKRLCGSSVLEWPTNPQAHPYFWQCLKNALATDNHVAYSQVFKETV
Protocol: (§1) 1) The conjugate of the present invention was diluted to a concentration that was 20 times a final concentration, the diluted conjugate was mixed with RNAiMAX-OPTI MEM (RNAiMAX:OPTI MEM=3:47) at a ratio of 1:1 and incubated for 15 min at room temperature.
(§2) 2) 10 μL of incubated conjugate of the present invention was added into a corresponding cell plate, with 10 concentrations in total, a maximum concentration being 200 nM, and double duplicated wells for each concentration.
10 μL of 0.5 μM BLOCK-iT™ Alexa Fluor® Red Fluorescent Control was added into 2 transfection positive control wells.
4) 90 μL of cells were seeded into a 96-well plate with the conjugate at the density of 50,000 cells/well. […]
7) Compound activity detection: 20 μL of cell supernatant was taken from each well and added into an experimental plate containing 180 μL of QUANTI-Blue™ reagent and then incubated for 1 h at 37° C., followed by detecting an absorbance values at 650 nm (OD650) using the multifunctional microplate reader Flexstation III.
Compound activity: the OD650 values were analyzed using GraphPad Prism software, and a dose effect curve of the compound was fit, and the EC50 value of the compound was calculated. […] The cell activity % value was analyzed using GraphPadPrism software, the dose effect curve of the compound was fit, and the CC50 value of the compound on cell was calculated.

[3] = test system: HEK BLUE hTLR7; assay: Cell activity detection (CellTiter-Glo) in hTLR7 cells; format: cell-based, human; settings: 24 h, maximum concentration 200 nM, read-out: CC50
Protocol: as §1, §2
4) 90 μL of cells were seeded into a 96-well plate with the conjugate at the density of 50,000 cells/well.
5) The conjugate of the present invention and the cells were co-incubated for 24 h in an incubator under the conditions of 37° C. and 5% CO2.
8) Cell activity detection: the operation was carried out according to the method in the Celltiter-Glo specification, and a chemiluminescence signals (RLU) were detected using the multifunctional microplate reader Flexstation III.
Compound activity: the OD650 values were analyzed using GraphPad Prism software, and a dose effect curve of the compound was fit, and the EC50 value of the compound was calculated. Cell activity detection: the calculation formula of cell activity % was as follows. The cell activity % value was analyzed using GraphPadPrism software, the dose effect curve of the compound was fit, and the CC50 value of the compound on cell was calculated.

| Substance | AGT mRNA expression of mouse liver after administration/before administration, Average [1] | AGT mRNA expression of mouse liver after administration/before administration [1] | EC50 [2] | CC50 [3] |
| --- | --- | --- | --- | --- |
| Conjugate 2: Double-stranded RNAi analog against AGT, D01 GalNAc ligand on sense strand; sense SEQ ID NO: 6, antisense SEQ ID NO: 2 containing Z (sense mA*mU*fCfCmAfCfAfAmUmGmAmGmAfGmUmAmCmA-{D01}; antisense CUCACAUGUACNCUCAUUGUGGAUGACGA; antisense: chemistry not given here; antisense strand modified, includes nucleotide analog Z, further chemistry not fully specified) | 3% | 2% (2×) and 3% and 4% | > 200 nM | > 200 nM |
| Conjugate 3: Double-stranded RNAi analog against AGT, D01 GalNAc ligand on sense strand; sense SEQ ID NO: 7, antisense SEQ ID NO: 2 containing Z (sense mA*mU*fCfCmAfCfAfAmUmGmAfGmAmGmUmAmCmA-{D01}; antisense CUCACAUGUACNCUCAUUGUGGAUGACGA; antisense: chemistry not given here; antisense strand modified, includes nucleotide analog Z, further chemistry not fully specified) | 3% | 3% (2×) and 2% (2×) | > 200 nM | > 200 nM |
